According to patent US10167257B2, “Indole derivatives for use in medicine” (IOmet Pharma Ltd., priority 2014, dated 2019):

Key:
[1] = target: T1, TDO (A172 cells) (Homo sapiens, UniProt P48775); experiment: TDO cell-based assay (A172), kynurenine production; conditions: A172 human glioblastoma cells, 500 μM L-Trp, 48 h, kynurenine by absorbance at 490 nm
T1 construct: This assay utilised cancer cells which expressed either TDO or IDO; host or cells: A172 human glioblastoma cells
Method in brief: (§1)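 Kynurenine output was read at 490 nm after 5 min with 1% Ehrlich's reagent, using supernatants from 48 h, 37 °C cultures containing 500 μM L-Trp and test compound. TDO activity came from A172 cells. IDO activity came from SKOV-3 cells, whose expression was induced by adding 500 ng/ml IFNγ.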

[2] = target: T2, IDO (SKOV-3 cells) (Homo sapiens, UniProt P14902); experiment: IDO cell-based assay (SKOV-3, IFNγ-induced), kynurenine production; conditions: SKOV-3 ovary adenocarcinoma cells, IFNγ 500 ng/ml, 500 μM L-Trp, 48 h, kynurenine by absorbance at 490 nm
T2 construct: This assay utilised cancer cells which expressed either TDO or IDO; host or cells: SKOV-3 ovary adenocarcinoma cells, IFNγ-induced
T2 sequence (P14902 whole entry): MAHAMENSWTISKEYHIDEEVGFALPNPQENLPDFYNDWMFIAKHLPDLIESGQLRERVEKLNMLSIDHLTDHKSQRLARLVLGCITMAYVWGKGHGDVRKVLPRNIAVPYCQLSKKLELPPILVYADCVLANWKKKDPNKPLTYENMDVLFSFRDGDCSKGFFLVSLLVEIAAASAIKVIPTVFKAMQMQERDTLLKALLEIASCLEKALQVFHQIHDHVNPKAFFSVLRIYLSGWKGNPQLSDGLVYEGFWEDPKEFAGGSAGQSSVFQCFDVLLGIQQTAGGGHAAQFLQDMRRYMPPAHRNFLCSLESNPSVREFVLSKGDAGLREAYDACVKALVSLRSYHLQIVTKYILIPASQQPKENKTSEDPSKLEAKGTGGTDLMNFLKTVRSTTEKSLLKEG
Method in brief: as §1

[3] = target: human IDO protein (Homo sapiens, UniProt P14902); experiment: IDO biochemical coupled assay (hIDO); conditions: 0.17 μM human IDO protein, biochemical coupled assay with formamidase
Sequence of human IDO protein (P14902 whole entry): as above
Source text: (§2) Two different types of assay were employed: 1. A TDO and IDO biochemical coupled assay which utilised recombinantly produced and purified TDO and IDO enzymes in combination with the enzyme formamidase. This coupled enzyme system allowed conversion of N-formylkynurenine produced by TDO or IDO activity to kynurenine which was then quantified by fluorescence following addition of Erhlich's Reagent. 2. A cell-based assay for detecting the effect of test compounds on kynurenine production in two different cancer cell types. This assay utilised cancer cells which expressed either TDO or IDO and as such was used as a means of testing compound activity at these two enzymes in a cell-based context. The protocols for these are set out below.
0.17 μM of human IDO protein was pre-incubated for 10 min or 120 min at RT with test compounds in the presence of 50 mM KPO4, pH 7.0, 0.5 mM EDTA, 0.5 mM EGTA, 0.05% Triton X-100, 20 mM ascorbate, 500 U/ml catalase, 10 μM methylene blue at RT in a 384 well plate. 0.05 μg/μl kynurenine formamidase and 45 μM or 121 μM L-tryptophan (L-Trp) were added and the assays were incubated at RT for 17 min. Assays were stopped and the level of kynurenine was determined by incubation with Ehrlich's reagent to a final concentration of 1.33% at RT for 5 min. Fluorescence intensity was read at 475 nm/530 nm.

[4] = target: human TDO protein (Homo sapiens, UniProt P48775); experiment: TDO biochemical coupled assay (hTDO); conditions: 2 μM human TDO protein, biochemical coupled assay with formamidase; read-out: pIC50 in the hTDO test (converted)
Sequence of human TDO protein (P48775 whole entry): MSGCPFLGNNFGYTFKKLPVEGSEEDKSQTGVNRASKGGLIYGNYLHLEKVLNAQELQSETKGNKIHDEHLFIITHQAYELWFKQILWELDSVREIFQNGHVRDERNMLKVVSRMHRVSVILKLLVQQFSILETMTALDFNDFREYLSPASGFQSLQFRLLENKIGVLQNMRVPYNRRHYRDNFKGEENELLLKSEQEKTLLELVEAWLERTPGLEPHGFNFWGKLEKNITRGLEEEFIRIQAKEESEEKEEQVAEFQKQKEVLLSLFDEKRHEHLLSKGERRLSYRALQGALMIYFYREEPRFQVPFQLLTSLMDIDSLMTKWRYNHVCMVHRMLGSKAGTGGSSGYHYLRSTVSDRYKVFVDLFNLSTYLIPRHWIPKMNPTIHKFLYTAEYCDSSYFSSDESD
Source text: as §2
2 μM of human TDO protein was pre-incubated for 10 minutes at RT with test compounds in the presence of 50 mM KH2PO4, pH 7.0, 0.5 mM EDTA, 0.5 mM EGTA, 0.05% Triton X-100, 20 mM ascorbate, 500 U/ml catalase, 10 μM methylene blue at RT in a 384 well plate. 0.05 μg/μl kynurenine formamidase and 330 μM or 178 μM L-tryptophan were added and the assays were incubated at room temperature (RT) for 17 min. Assays were stopped and the level of kynurenine was determined by incubation with Ehrlich's reagent to a final concentration of 1.33% at RT for 5 min. Fluorescence intensity was read at 475 nm/530 nm.

T1 sequence (P48775 whole entry): as above

Structure (SMILES) | TDO cellular assay (A172) pIC50 [1] | IDO cellular assay (SKOV3) pIC50 [2] | further results
CC(NC(=O)c1cc2cc(Cl)ccc2[nH]1)c1ccc(C(=O)N(C)C)cc1 (stereo not shown) [Compound 83] | − (− = pIC50 <4.50) | +++ (+++ = pIC50 ≥5.50) | pIC50 in the hIDO assay [3]: 5.24
CCOc1ccc2[nH]c(C(=O)N[C@H](C)c3ccccc3)cc2c1 [Compound 270] | − (− = pIC50 <4.50) | +++ (+++ = pIC50 ≥5.50) | –
CCOc1ccc2[nH]c(C(=O)NC3(c4ccccc4)CC3)cc2c1 [Compound 271] | ++ (++ = pIC50 5.00-<5.50) | +++ (+++ = pIC50 ≥5.50) | –
CCOc1ccc2[nH]c(C(=O)NC(C)c3cnn(C)c3)cc2c1 (stereo not shown) [Compound 272] | − (− = pIC50 <4.50) | +++ (+++ = pIC50 ≥5.50) | –
CCOc1ccc2[nH]c(C(=O)NC3(c4cnn(C)c4)CC3)cc2c1 [Compound 273] | − (− = pIC50 <4.50) | +++ (+++ = pIC50 ≥5.50) | –
O=C(NC1(c2cocn2)CC1)c1cc2cc(Cl)ccc2[nH]1 [Compound 274] | − (− = pIC50 <4.50) | +++ (+++ = pIC50 ≥5.50) | –
Cn1cc(C2(NC(=O)c3cc4cc(OC(F)(F)F)ccc4[nH]3)CC2)cn1 [Compound 275] | − (− = pIC50 <4.50) | +++ (+++ = pIC50 ≥5.50) | –
O=C(Nc1cccnc1)c1cc2ccccc2[nH]1 [REF, reference compound] | – | – | IC50 ([1]; read-out: TDO cellular assay (A172) pIC50 (converted)): > 31.6 µM; IC50 ([2]; read-out: IDO cellular assay (SKOV3) pIC50 (converted)): > 31.6 µM; IC50 ([3]; read-out: pIC50 in the hIDO assay (converted)): > 102 µM; IC50 [4]: > 102 µM
